These results are taken from US20260306644A1, “ANTIBODY RECRUITING MOLECULES FOR THE TREATMENT OF CORONAVIRUS DISEASE-19” (priority 2023, published 2026).

Positions of bridges follow the written chain, without caps; N, C: chain ends.

The term EC50 denotes the midpoint of the concentration-response curve. The IC50 is the concentration at which inhibition is half-maximal. Low readings indicate higher potency, high ones lower potency. What is called Kd is the free concentration of one partner at which half of the binding sites on the other are occupied at equilibrium, for simple one-to-one binding.

One assay deals with SARS-CoV-2 Spike protein (Severe acute respiratory syndrome coronavirus 2, UniProt P0DTC2). Description: Ternary binding of SARS-CoV-2 Spike protein (293T cells expressing Spike-GFP, IgG-AF647, flow cytometry). The assay is classed as cell-based. To be noted: 293T cells expressing Spike-GFP; IgG-AF647 10 μg/ml; repeat values/batches listed separately; read-out: SARS-CoV-2 Ternary binding EC50. (A flow cytometer gives signals particle by particle.)

Assay [1] has as its target T1, SARS-CoV-2 Spike A (wild-type) (Severe acute respiratory syndrome coronavirus 2, UniProt P0DTC2).
T1 construct: purchased Meso Scale Diagnostics, LLC V-PLEX SARS-CoV-2 Panel 13 (ACE2) Kit / Panel 23 (ACE2) Kit
The experiment in a line: MSD ACE2 competition assay (inhibition of Spike binding with ACE2, ECL), A (wild-type). To be noted: IC50 Wild Type, Wild Type Spike.

The target of a further assay is native human IgG1. Description: Ligand binding to native human IgG1 by Bio-Layer Interferometry (BLI). To be noted: read-out: Octet Native IgG1 Binding KD. On the procedure: The binding of exemplary compounds to native human IgG1 was measured by Bio-Layer Interferometry (BLI) using the ForteBio Octet® 96e platform (Fremont, CA). The binding assay was performed using the Protein L (ProL) Dip and Read Biosensors (ForteBio 18-5085) in a 96-well black flat bottom assay plate (Greiner Bio-One 655209; Monroe, NC) with the following steps: (1) 60 seconds of baseline; (2) 600 seconds of loading with 50 μg/ml of Native Human IgG1 (Abcam ab184886; Cambridge, UK); (3) 60 seconds of baseline; (4) 180 seconds of association with a dilution series of ligand in Assay Buffer (PBS (Gibco 10010; Grand Island, New York), 0.1% (w/v) BSA (American Bio AB01088-00100; Canton, MA), 0.05% (v/v) Tween 20 (Fisher BioReagents™ BP337-500; Pittsburgh, PA), pH 7.4), consisting of seven concentrations. The eighth tip in the column was run in Assay Buffer to serve as a reference sensor, the signal of which was subtracted from the sample sensors. (5) 180 seconds of dissociation in Assay Buffer.
The data was analyzed with the Octet® Data Analysis HT software. The processed data was globally fit to a 1:1 binding model for determination of the equilibrium dissociation constant (KD) and is shown in Table 7.

Assay [2] relates to Spike RBD coated magnetic beads / RAW 264.7 macrophages. Description: Antibody-dependent cellular phagocytosis (ADCP), RAW 264.7 macrophages and Spike RBD coated magnetic beads, flow cytometry. The assay is classed as cell-based. The following applies: 37° C., 2 hours, read-out: SARS-COV-2 ADCP EC50. The gist of the method:
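Spike RBD-coated magnetic beads were mixed with RAW 264.7 macrophages (50,000 cells per well) and compounds at set final concentrations. The mixture was incubated 2 hours at 37° C, and bead uptake was measured by flow cytometry.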

Regarding “Ac-DKEWILQKIYEIMRLLDELGHAEASMRVSDLIYEFMKKGPASPASPASPASDCAWHLGELVWCT (disulfide 53-63) [Compound 167]”, the EC50 came to 0.24 nM on SARS-CoV-2 Spike protein and 0.11 nM in assay [2]. The IC50 in assay [1] was determined as 10.8 nM. Also, the Kd at native human IgG1 is less than 1 nM.
